Experimental data as given in patent US20100003217A1, “Compounds and Pharmaceutical Compositions for the Treatment of Viral Infections” (priority 2008, published 2010).
Values joined by “and” are separate entries in the source; they are usually repeats but may differ in a detail not shown here. Equal entries are not always repeated.

Tested on: Huh-7 cells
Assay: Metabolic disposition of [^14C]-Compound 1 and [^14C]-2′-C-methyl guanosine in Huh-7 cells (incubation medium, cellular extracts, nucleotide levels)
Type: in vitro ADME, human
Conditions: for Major metabolites observed in cellular extracts (% of total radioactivity): Huh7, 10 μM [^14C]-Compound 1; for % Residual [^14C]-Compound 1 in incubation medium: Huh7 cells (n=2), 10 μM
Description: Huh-7 cells: Confluent monolayers of Huh-7 cells were dispersed using trypsin-EDTA, rinsed and pelleted by centrifugation at 1,000 rpm (Beckman, Model Allegra 6R). Cells were resuspended at 0.2, 0.3 and 0.4×10^6 cells/mL of medium (DMEM supplemented with 1% pyruvate, 10% FBS, 0.5% penicillin-streptomycin, 1% L-glutamine, 1% non-essential amino acids and 22 mM HEPES). Multi-well collagen I-coated plates (rat tail collagen type I; 6-well) were then seeded by addition of 2.0 mL of cell suspension to achieve final cell density of 0.4, 0.6 and 0.8×10^6 cells/well and placed in an incubator at 37° C. overnight to allow cells to attach and acclimatize to culture and the medium. Duplicate plates were prepared with the same cell density for cell number determination at each time point.
Huh-7 incubations were conducted in a final volume of 2.0 mL Huh7 culture medium/well ([…]). Culture medium from overnight incubation of cells was removed and replaced with fresh culture medium, pre-warmed to 37° C. containing [^14C]-Compound 1 or [^14C]-2′-C-methyl guanosine as described above for primary hepatocytes. After 24, 48 and 72 hours, 0.5-1.0 mL of incubation medium was removed and stored at −20° C. until analysis (described below). The remaining medium was discarded and cell monolayers processed and extracted as described above.
Preliminary identification of putative metabolites was conducted by comparing the retention time of observed metabolites in incubation medium and cellular extracts with retention times obtained with chemically synthesized standards using the chromatography conditions described below. Further identification of 2′-C-methyl guanosine nucleotides (mono-, di- and triphosphate) was carried out by incubating cellular extract samples with alkaline phosphatase (10 units for 60 min at 37° C.) and comparing the HPLC retention times of the resulting nucleosides with that of authentic 2′-C-methyl guanosine.
Cellular extracts were prepared by centrifugation at 16,000 RCF using an Eppendorf microcentrifuge (Eppendorf, Model 5415D) for 10 min to remove cellular debris. An aliquot of 5-10 μL of the supernatant was added to 5 mL of EcoLite™ (MP, Irvine, Calif.) liquid scintillation cocktail and radioactivity measured by liquid scintillation counting (LSC) using a Beckman Coulter LS6500 multipurpose liquid scintillation counter (Beckman Instruments, Fullerton, Calif.). The remaining sample was then dried using a Labconco refrigerated centrivap concentrator (Labconco, Kansas City, Mo.). Dry extracts were reconstituted in 120 μL of HPLC-grade water and centrifuged at 16,000 RCF using an Eppendorf microcentrifuge for 10 min. Prior to HPLC analysis (described below), radioactivity of the concentrated extracts was measured by LSC using 5 μL aliquots. Extraction recovery was then determined by comparing total radioactivity in extracts before and after drying. The remaining extract was then analyzed by HPLC with online radioactivity detection using a Flow Scintillation Analyzer Radiomatic™ 515TR. Radioactivity in the separated components was quantified by integrating the peaks using Flo-One™ Software (Perkin Elmer Life Sciences). Samples with poor recovery (<85%) were re-analyzed when possible.
Incubation medium samples were thawed at room temperature, vortexed and centrifuged at 16,000 RCF using an Eppendorf microcentrifuge. An aliquot of 10 μL was added to 5 mL of EcoLite™ (MP, Irvine, Calif.) liquid scintillation cocktail and radioactivity measured by LSC using a Beckman Coulter LS6500 multipurpose liquid scintillation counter (Beckman Instruments, Fullerton, Calif.). Samples (50-100 μL) were then analyzed by HPLC (described below) with online radioactivity detection using a Flow Scintillation Analyzer Radiomatic™ 515TR. Radioactivity in the separated components was quantified by integrating the peaks using Flo-One™ Software (Perkin Elmer Life Sciences). Samples with poor recovery (<85%) were re-analyzed when possible. […]

CC(C)(CO)C(=O)SCCOP(=O)(NCc1ccccc1)OC[C@H]1O[C@@H](n2cnc3c(=O)[nH]c(N)nc32)[C@](C)(O)[C@@H]1O (mixture of isomers) [Compound 1, 3-hydroxy-2,2-dimethyl-thiopropionic acid S-(2-{[(2R,3R,4R,5R)-5-(2-amino-6-oxo-1,6-dihydro-purin-9-yl)-3,4-dihydroxy-4-methyl-tetrahydro-furan-2-ylmethoxy]-benzylamino-phosphoryloxy}-ethyl) ester]
Major metabolites observed in cellular extracts (% of total radioactivity) (24 h, first series): 40.3 % of total radioactivity
Major metabolites observed in cellular extracts (% of total radioactivity) (24 h, second series): 10.4 % of total radioactivity
Major metabolites observed in cellular extracts (% of total radioactivity) (48 h, first series): 15.8 % of total radioactivity
Major metabolites observed in cellular extracts (% of total radioactivity) (48 h, second series): 21.2 % of total radioactivity
Major metabolites observed in cellular extracts (% of total radioactivity) (72 h, first series): 14.1 % of total radioactivity
Major metabolites observed in cellular extracts (% of total radioactivity) (72 h, second series): 16.2 % of total radioactivity
% Residual [^14C]-Compound 1 in incubation medium (0 h): 98% and 96%
% Residual [^14C]-Compound 1 in incubation medium (24 h): 86% and 85%
% Residual [^14C]-Compound 1 in incubation medium (48 h): 76% and 77%
% Residual [^14C]-Compound 1 in incubation medium (72 h): 67% and 65% and 68%
unchanged Compound 1, % of the total radioactivity (Huh7 cells, after 72 hours incubation with [^14C]-Compound 1): 15%
